According to ChEMBL document CHEMBL1154980, “Tetrapeptides possessing a unique skeleton, JBIR-34 and JBIR-35, isolated from a sponge-derived actinomycete, Streptomyces sp. Sp080513GE-23” (J Nat Prod, 2010):
Calls of active or inactive are those of the source. No cut-off for these calls is given here.

Columns and labels:
Micrococcus luteus = experiment: Antibacterial activity against Micrococcus luteus; assay type: functional, organism-based
Escherichia coli = experiment: Antibacterial activity against Escherichia coli; assay type: functional, organism-based
[1] = test system: Radical scavenging activity; experiment: Antioxidant activity assessed as DPPH radical scavenging activity after 1 hr; assay type: functional

SMILES | Activity (Micrococcus luteus) | Activity (Escherichia coli) | IC50 [1]
Cc1c(Cl)cc2c(c(C3=N[C@@](C)(C(=O)N[C@H](C)C(=O)N[C@@H](CO)C(=O)O)CO3)cn2C)c1O | inactive | inactive | 1000 µM
C[C@@H](NC(=O)[C@@]1(C)COC(c2cn(C)c3cc(Cl)cc(O)c23)=N1)C(=O)N[C@@H](CO)C(=O)O | inactive | inactive | 2500 µM
Cc1c(C)c2c(c(C)c1O)CC[C@@](C)(CCC[C@H](C)CCC[C@H](C)CCCC(C)C)O2 [ALPHA-TOCOPHEROL] |  |  | 50 µM
